Assays:
[1] = tested on: immature embryos of Stine inbred 963; experiment: Type II callus initiation from cultured immature embryos (embryos responding); type: cell-based, Zea mays L.; settings: sugar at 10 g/l in combination with 20 g/l sucrose, N6A medium
Procedure: Plants of the elite corn inbred Stine 963 were grown under controlled conditions, either in a grow room or in a greenhouse. Plants were exposed throughout growth to a 16 h photoperiod with a daytime temperature of around 30° C. and a nighttime temperature of around 25° C. Plants were selfed and after approximately 10 days ears were harvested. At this time the immature embryos were on average between 1.0 and 2.0 mm in length. Usually the ears were then placed at 4° for two days prior to immature embryo excision. The response on standard […] media (Table 1) for inducing Type II callus was variable and appeared to be dependent on the physiological state of the donor plant. The frequency of Type II callus ranged from 0% up to 95%, with an average of around 40%. Immature embryos were excised with a view to using them as targets for Agrobacterium-mediated DNA delivery. For this work a reproducible and high frequency response is required and improvement in these aspects was therefore desirable. The protocol used for introduction of DNA mediated by Agrobacterium was based on that described by Hei and Komari (1997). The co-cultivation medium in this protocol (LSAS-Table 1) contains glucose, intended presumably as a carbon source for Agrobacterium. After close observation of immature embryos on LSAS medium it was thought worthwhile to check for the effects of glucose on culture initiation and subsequent development. 10 g/l of glucose was therefore added to […] medium. This medium was subsequently referred to as […] (Table 1). […] Various other sugars were tested in this regard (see Table 3) and some are capable of supporting an increased rate of Type II callus initiation (especially maltose, lactose, sorbitol and mannitol). None of those tested, however, were as efficient as glucose in stimulating Type II callus formation on […] medium. All sugars were tested at 10 g/l in combination with 20 g/l sucrose.

Agrobacterium = experiment: Control of Agrobacterium growth on culture media after co-cultivation; type: cell-based, Agrobacterium tumefaciens; settings: for control of Agrobacterium growth: first 19 day culture period after co-cultivation
Excerpt: Agrobacterium strain LBA 4404 harboring “super binary” vectors as described in U.S. patent Hei and Komari (1997) was used in corn transformation experiments. […] The gus expression cassette contains an intron in the N-terminal region of the gus gene which prevents expression in bacteria, but upon expression in plant cells the intron is spliced out and Gus activity is achieved (Ohta et al., 1990; Ishida et al., 1996). Agrobacterium containing “super binary” vectors were stored in glycerol stocks using acidified glycerol. Glycerol was acidified by adding 15 drops of 1 M HCl to one liter of glycerol (Sigma G-9012). Final glycerol concentration of stocks was 15 to 20% and stocks were frozen at minus 86° C. When glycerol stocks were used as the source for transformation experiments, Agrobacterium was made ready for transformation experiments by removing a few flakes of frozen culture with a sterile loop, streaking it out on YP medium (5 g/l yeast extract, 10 g/l peptone, 5 g/l NaCl, and 15 g/l agar) containing 50 mg/l spectinomycin, and incubating it for one or two days at 28° C. When glycerol stocks were not used as the source, Agrobacterium maintained on YP plus spectinomycin at 4° C. was used to initiate new cultures of Agrobacterium that were grown as described above.
Therefore, a lower level of cefotaxime was tested in the presence of silver nitrate to see if embryo response and subsequent clone recovery could be improved. […] The clones were then transferred to DN62B (Table 4) for growth and further selection prior to regeneration.

## OC[C@H]1O[C@H](OCC2O[C@@H](O)[C@H](O)[C@@H](O)[C@@H]2O)[C@H](O)[C@@H](O)[C@H]1O (stereo partly shown) [Mellibiose]
[1]
  Embryo Response: <50%

## OC[C@H]1O[C@H](O[C@H]2O[C@H](CO)[C@@H](O)[C@H](O)[C@H]2O)[C@H](O)[C@@H](O)[C@@H]1O [Trehalose]
[1]
  Embryo Response: <50%

## O=C[C@H](O)[C@@H](O)[C@@H](O)[C@H](O)CO [Galactose]
[1]
  Embryo Response: <30%

## O=[N+]([O-])[O-].[Ag+] [silver nitrate]
Agrobacterium; media containing silver nitrate
  Agrobacterium growth: inhibited

## O=C[C@H](O)[C@@H](O)[C@H](O)CO [Xylose]
[1]
  Embryo Response: <50%

## O=C(CO)[C@@H](O)[C@H](O)[C@H](O)CO [Fructose]
[1]
  Embryo Response: <50%

## OC[C@H]1O[C@H](OC[C@H]2O[C@H](O[C@]3(CO)O[C@H](CO)[C@@H](O)[C@@H]3O)[C@H](O)[C@@H](O)[C@@H]2O)[C@H](O)[C@@H](O)[C@H]1O [Raffinose]
[1]
  Embryo Response: <50%

## CO/N=C(\C(=O)N[C@@H]1C(=O)N2C(C(=O)O)=C(COC(C)=O)CS[C@H]12)c1csc(N)n1 [cefotaxime]
Agrobacterium; 10 mg/l cefotaxime in presence of silver nitrate
  control of Agrobacterium growth: not
Agrobacterium; 50 mg/l cefotaxime in presence of silver nitrate
  control of Agrobacterium growth: Adequate control of Agrobacterium growth

## O=C[C@H](O)[C@@H](O)[C@H](O[C@@H]1O[C@H](CO)[C@@H](O)[C@H](O)[C@H]1O)[C@H](O)CO [Cellobiose]
[1]
  Embryo Response: <50%

Source: patent US6420630B1, “Methods for tissue culturing and transforming elite inbreds of Zea mays L” (Stine Biotechnology, priority 1998, dated 2002)
